“Also recorded” adds a separate entry of the source. Structures can show the parent of a compound that is named as a salt.

Experiment [1] has as its system BRx50 human CTC-derived cells. Kind of experiment: FDA-approved compound screen for CTC cluster dissociation (high content imaging). The class given is cell-based. To be noted: even at lowest concentration tested (0.1 μM).
The test system of another experiment is BR16 CTC-derived cells. Described as above. The experiment is classed as cell-based, human. To be noted: even at lowest concentration tested (0.1 μM), 2 days, hypoxia. The method, then:
In order to identify actionable vulnerabilities of CTC clusters, and to test whether the epigenetic and transcriptional features of clustered CTCs are reversible upon cluster dissociation into single cells the following steps were undertaken. First, the expression of all known cell-cell junction (CCJ) components in patient samples obtained from normal breast (TGCA REF), breast cancer (TOGA REF), single CTCs and CTC clusters were assessed (Aceto et al. Cell 2014). While breast cancer cells tend to only partially reduce their CCJ repertoire compared to normal breast cells, CTCs express only a small fraction of CCJ components, likely as a consequence to their increased motility. Yet, CTC clusters retain a higher number of CCJs as compared to single CTCs. […] To this end, 2′486 FDA-approved compounds were evaluated for their ability to dissociate clusters of human breast CTC-derived cells. Cluster dissociation was assessed using a high content screening microscope and comparing cells treated with each individual compound to steady state clustered BR16 cells and 40 μm-filtered BR16 single cell suspension as negative and positive controls, respectively (FIG. 4a). […] For the majority of the 2′486 FDA-approved compounds, when using a 5 μM concentration for 2 days in hypoxic conditions, no detectable reduction in cell viability (>70% viability) nor mean cluster size (>450 μm2) in BR16 CTC-derived cells was observed. […] These compounds include inhibitors of Na^+/K^+ ATPases (n=6), HDACs (n=2), nucleotide biosynthesis (n=5), kinases (n=4), GPCRs (n=2), cholesterol biosynthesis (n=1), nuclear export (n=1), tubulin (n=9), as well as DNA binding compounds (n=8) and antibiotics (n=1).
A library containing 2,486 FDA-approved compounds was purchased from the Nexus Platform ETH Zurich. Each compound was resuspended using CTC medium at a 15 μM concentration and 20 μl were aliquoted in duplicate in a total of 64 Flat Bottom Clear Ultra Low attachment 96-well plates (Corning, Cat #3474).
To reduce cluster size in CTC derived cell lines, a 40 μm cell strainer was used (Corning, Cat #431750). […] Plates were incubated in hypoxia (5% oxygen) for 2 days and then 20 μl were transferred into a 96 well Black/clear Tissue culture treated plate (BD Falcon, Cat #353219) containing 40 μl of D-PBS (Invitrogen, Cat #14190169) and stained for 1 hr at 37° C. with a final concentration of 4 μM Hoechst 34580 (Invitrogen, Cat #H21486), 2 μM TMRM (Invitrogen, Cat #T668) and 4 μM TOTO-3 (Invitrogen, Cat #T3604). For each plate, two positive controls (non-treated cells) and two negative controls (non-treated and […] cells) were included. Z-factors were calculated per individual plate using the following formula: Z′=1−3(σs+σc)/|μs−μc|^3 (σ: standard deviation, μ: mean, s: positive control and c: negative control) (Martin et al., PLoS One 9, e88338, 2014) and ranged between 0.62-0.937. Plates were scanned using Operetta High Content Imaging System (Perkin Elmer) and cluster analysis was performed using Harmony High Content Imaging and Analysis Software (Perkin Elmer).

Another experiment relates to LM2 xenografts. The experiment is described as follows: LM2 xenograft, spontaneous CTC clusters and metastasis. The experiment is classed as in vivo, NSG mice. To be noted: LM2 xenograft, digoxin 2 mg/kg vs vehicle.
In a further experiment the test system is BR16 xenografts. The experiment is described as follows: BR16 xenograft (mammary fat pad), spontaneous CTC clusters and metastasis. The experiment is classed as in vivo, NSG mice. Conditions: digoxin 2 mg/kg vs vehicle. The method, then: Blood specimens for CTC analysis were obtained from University Hospital Basel after informed patient consent according to protocol EKNZ BASEC 2016-00067 and EK 321/10, which received ethical approval from the Swiss authorities (EKNZ, Ethics Committee northwest/central Switzerland). An average of 7.5 ml of blood per patient was drawn in EDTA vacutainers. Within 1 hr from blood draw, the blood was processed through Parsortix GEN3D6.5 Cell Separation Cassette (Angle Europe). For mouse studies, blood was retrieved via cardiac puncture and 1 ml of blood was similarly processed through a Parsortix device. Captured CTCs were further stained on Parsortix cassette with EpCAM-AF488 conjugated (CellSignaling, Cat #CST5198), HER2-AF488 (#324410, BioLegend), EGFR-FITC conjugated (GeneTex, Cat #GTX11400) and CD45-BV605 conjugated (Biolegend, Cat #304042 (anti-human); Cat #103140 (anti-mouse)) antibodies. For all other models (xenografts), carrying cancer cells stably expressing a GFP-Luciferase reporter, only anti-CD45 staining was performed, while CTCs were identified based on GFP expression. The number of captured CTCs, including single CTCs, CTC clusters and CTC-WBC clusters, was determined while cells were still in the cassette. CTCs were then released from the cassette in DPBS (#14190169, Gibco) onto ultra-low attachment plates (#3471-COR, Corning). Representative pictures were taken at 40× magnification with Leica DM14000 fluorescent microscope using Leica LAS and analyzed with ImageJ.
For tail vein experiments, NOD SCID Gamma (NSG) mice (Jackson Labs) were injected with 1×10^6 BR16-mCherry cells resuspended in 100 μl D-PBS and monitored with IVIS Lumina II (Perkin Elmer). For CTC xenograft mouse model isolation, 1×10^6 LM2-GFP, 1×10^6 BRx50-GFP or 1×10^6 BR16-GFP cells were resuspended in 100 μl of 50% Cultrex PathClear Reduced Growth Factor Basement Membrane Extract (R&D Biosystems, Cat #3533-010-02) in D-PBS and injected orthotopically in NSG mice. Blood draw was performed 4-5 weeks after tumor onset for LM2 cells, 5-6 months after tumor onset for BR16 and 6-7 months after tumor onset for BRx50 cells.

`COc1cc2c(c(OC)c1OC)-c1ccc(OC)c(=O)cc1[C@@H](NC(C)=O)CC2` [colchicine]: the mean cluster size entry (in experiment [1]; in the experiment with BR16 CTC-derived cells) was “significant decrease in mean cluster size” throughout.

In the case of `C[C@H]1O[C@@H](O[C@H]2[C@@H](O)C[C@H](O[C@H]3[C@@H](O)C[C@H](O[C@H]4CC[C@@]5(C)[C@H](CC[C@@H]6[C@@H]5C[C@@H](O)[C@]5(C)[C@@H](C7=CC(=O)OC7)CC[C@]65O)C4)O[C@@H]3C)O[C@@H]2C)C[C@H](O)[C@@H]1O` [digoxin, Digoxin], in the experiment on LM2 xenografts, the “formation of CTC clusters (CTC fold change)” value is given as “reduced the formation”, the “formation of CTC-neutrophil clusters (CTC fold change)” value was “reduced the formation”, the overall survival entry is on record as “prolonged overall survival” and the “tumor size / tumor growth rate over time” value is given as “No significant differences are observed; also recorded: no significant difference”. The overall survival entry in the experiment on LM2 xenografts (listed as Digoxin) is reported as “prolongs overall survival”. In addition, in the experiment with BR16 xenografts, the “metastasis (metastatic index)” value was “suppresses metastasis”, the “number of CTC clusters” value is “clear decrease”, the “number of CTC-neutrophil clusters” value is recorded as “clear decrease” and the “tumor size / tumor growth rate over time” value is “No significant differences are observed; also recorded: no significant difference”.

Regarding `COc1cc([C@@H]2c3cc4c(cc3[C@H](O)[C@H]3COC(=O)[C@H]23)OCO4)cc(OC)c1OC` [podofilox], the mean cluster size result (in experiment [1]; in the experiment on BR16 CTC-derived cells) was “significant decrease in mean cluster size” throughout.

`COc1cc(OC)c(/C=C/S(=O)(=O)Cc2ccc(OC)c(NCC(=O)O)c2)c(OC)c1` [rigosertib]: the mean cluster size result (in experiment [1]; in the experiment with BR16 CTC-derived cells) was “significant decrease in mean cluster size” throughout.

As for `CC[C@]1(O)C[C@H]2CN(CCc3c([nH]c4ccccc34)[C@@](C(=O)OC)(c3cc4c(cc3OC)N(C=O)[C@H]3[C@@](O)(C(=O)OC)[C@H](OC(C)=O)[C@]5(CC)C=CCN6CC[C@]43[C@@H]65)C2)C1` [vincristine sulfate], the mean cluster size result (in experiment [1]; in the experiment on BR16 CTC-derived cells) was “significant decrease in mean cluster size” in each case.

(Values after US20220062317A1, “NA+/K+ ATPASE INHIBITORS FOR USE IN THE PREVENTION OR TREATMENT OF METASTASIS” (UNIVERSITÄT BASEL, priority 2018, published 2022).)
